# EP0345356A1, “PLATINUM COMPLEX AND THERAPEUTIC AGENT FOR MALIGNANT TUMOR” (TORAY INDUSTRIES, INC., priority 1987, dated 1989)
# Values joined by “and” are separate entries in the source; they are usually repeats but may differ in a detail not shown here. Identical values can stand only once.
# Columns and labels:
# Slc:ICR mice = test: Acute toxicity test in mice (LD50, Miller-Tainter method); type: in vivo; settings: intraperitoneal, Slc:ICR mice (male), death rate on the 14th day
# Protocol: Platinum complexes to be tested was administered intraperitoneally to Slc:ICR mice (male, 5 weeks old, 6 mice/group). Each complex was used in the form of a solution or suspension in a 0.05% "Tween 80" in saline. The LD50 value was calculated by the Miller-Tainter method from the death rate on the 14th day from the date of the administration.
# [1] = tested on: L1210 murine leukemia cells; test: Antitumor activity against L1210 leukemia in mice; type: in vivo, CDF1 mice; settings: for Survival days (mean ± SD) / T/C (%): given on 1st, 5th and 9th days after tumor inoculation; for Survival rate: number of 30 days survival mice / group
# Protocol: L1210 murine leukemia cells which were subcultured in DBA/2 mouse were inoculated intraperitoneally into CDF1 mice at 10^5 cells/mouse. Each experimental group was composed of 6-10 mice (male, 6-weeks old). Each test compound was administered three times, i.e., on the 1st, 5th and 9th days after tumor inoculation. […] Each compound was dissolved or suspended in 0.05% "Tween 80" solution and administered in mice.
compound,measurement,setting,value
2-Furanacrylate-hydroxo(trans-i-dach)platinum(II) [XXXI-3],LD50 values,Slc:ICR mice,>200 mg/kg
2-Propenylacrylate-hydroxo(trans-ℓ-dach)platinum(II) [XXXI-2],LD50 values,Slc:ICR mice,>200 mg/kg
"CC(=O)N1c2ccccc2CC1C(=O)[O-].CC(=O)N1c2ccccc2CC1C(=O)[O-].NC1CCCCC1N.[Pt+2] (racemic) [XXIII-2, Bis(DL-1-acetylindoline-2-carboxylato)(trans-ℓ-dach)platinum(II)]",Survival days (mean ± SD),[1]; Dose 1 mg/kg,8.3 ± 0.5 days
same,T/C (%),[1]; Dose 1 mg/kg,102%
same,Survival rate,[1]; Dose 1 mg/kg,0/6
same,Survival days (mean ± SD),[1]; Dose 10 mg/kg,12.7 ± 8.6 days
same,T/C (%),[1]; Dose 10 mg/kg,157%
same,Survival rate,[1]; Dose 10 mg/kg,1/6
same,Survival days (mean ± SD),[1]; Dose 25 mg/kg,14.2 ± 3.3 days
same,T/C (%),[1]; Dose 25 mg/kg,175%
same,Survival rate,[1]; Dose 25 mg/kg,0/6
same,Survival days (mean ± SD),[1]; Dose 50 mg/kg,13.3 ± 6.1 days
same,T/C (%),[1]; Dose 50 mg/kg,164%
same,Survival rate,[1]; Dose 50 mg/kg,0/6
same,Survival days (mean ± SD),[1]; Dose 100 mg/kg,22.2 ± 9.0 days
same,T/C (%),[1]; Dose 100 mg/kg,274%
same,Survival rate,[1]; Dose 100 mg/kg,3/6
same,Survival days (mean ± SD),[1]; Dose 200 mg/kg,14.0 ± 2.4 days
same,T/C (%),[1]; Dose 200 mg/kg,173%
same,Survival rate,[1]; Dose 200 mg/kg,0/6
same,LD50 values,Slc:ICR mice,>200 mg/kg
"NC1CCCCC1N.O=C([O-])C1CCCO1.O=C([O-])C1CCCO1.[Pt+2] (racemic) [XXIV-2, Bis(DL-2-tetrahydrofurancarboxylato)(trans-ℓ-dach)-platinum(II)]",Survival days (mean ± SD),[1]; Dose 1 mg/kg,11.5 ± 1.9 days
same,T/C (%),[1]; Dose 1 mg/kg,135%
same,Survival rate,[1]; Dose 1 mg/kg,0/6
same,Survival days (mean ± SD),[1]; Dose 10 mg/kg,20.3 ± 2.7 days
same,T/C (%),[1]; Dose 10 mg/kg,239%
same,Survival rate,[1]; Dose 10 mg/kg,0/6
same,Survival days (mean ± SD),[1]; Dose 25 mg/kg,16.7 ± 4.3 days
same,T/C (%),[1]; Dose 25 mg/kg,196%
same,Survival rate,[1]; Dose 25 mg/kg,0/6
same,Survival days (mean ± SD),[1]; Dose 50 mg/kg,10.2 ± 1.0 days
same,T/C (%),[1]; Dose 50 mg/kg,120%
same,Survival rate,[1]; Dose 50 mg/kg,0/6
same,Survival days (mean ± SD),[1]; Dose 100 mg/kg,6.3 ± 0.8 days
same,T/C (%),[1]; Dose 100 mg/kg,74%
same,Survival rate,[1]; Dose 100 mg/kg,0/6
same,Survival days (mean ± SD),[1]; Dose 200 mg/kg,4.8 ± 1.3 days
same,T/C (%),[1]; Dose 200 mg/kg,57%
same,Survival rate,[1]; Dose 200 mg/kg,0/6
same,LD50 values,Slc:ICR mice,45 mg/kg
"N.N.O=C([O-])C1(C(=O)[O-])CCC1.[Pt+2] [C B D C A, cis-diammine-1,1-cyclobutanedicarboxylate platinum(II), reference compound]",Survival days (mean ± SD),[1]; Dose 1 mg/kg,8.3 ± 0.5 days
same,T/C (%),[1]; Dose 1 mg/kg,98%
same,Survival rate,[1]; Dose 1 mg/kg,0/10
same,Survival days (mean ± SD),[1]; Dose 10 mg/kg,9.3 ± 0.5 days
same,T/C (%),[1]; Dose 10 mg/kg,109%
same,Survival rate,[1]; Dose 10 mg/kg,0/10
same,Survival days (mean ± SD),[1]; Dose 25 mg/kg,10.1 ± 1.3 days
same,T/C (%),[1]; Dose 25 mg/kg,119%
same,Survival rate,[1]; Dose 25 mg/kg,0/10
same,Survival days (mean ± SD),[1]; Dose 50 mg/kg,13.1 ± 2.3 days
same,T/C (%),[1]; Dose 50 mg/kg,156%
same,Survival rate,[1]; Dose 50 mg/kg,0/10
same,Survival days (mean ± SD),[1]; Dose 100 mg/kg,14.1 ± 3.7 days
same,T/C (%),[1]; Dose 100 mg/kg,166%
same,Survival rate,[1]; Dose 100 mg/kg,0/10
same,Survival days (mean ± SD),[1]; Dose 200 mg/kg,9.6 ± 0.7 days
same,T/C (%),[1]; Dose 200 mg/kg,113%
same,Survival rate,[1]; Dose 200 mg/kg,0/10
"N.N.[Cl][Pt][Cl] [C D D P, cis-diamminedichloro platinum(II), reference compound]",Survival days (mean ± SD),[1]; Dose 0.5 mg/kg,18.9 ± 5.8 days
same,T/C (%),[1]; Dose 0.5 mg/kg,225%
same,Survival rate,[1]; Dose 0.5 mg/kg,0/6
same,Survival days (mean ± SD),"[1]; Dose 2.5 mg/kg, 2.5 mg/kg",14.5 ± 2.5 days and 15.5 ± 1.4 days and 13.0 ± 3.1 days and 14.8 ± 2.7 days
same,T/C (%),"[1]; Dose 2.5 mg/kg, 2.5 mg/kg",175% and 191% and 181%
same,Survival rate,[1]; Dose 2.5 mg/kg,0/6
same,Survival days (mean ± SD),"[1]; Dose 5 mg/kg, 5 mg/kg",16.3 ± 1.2 days and 18.2 ± 0.4 days and 18.8 ± 4.3 days
same,T/C (%),"[1]; Dose 5 mg/kg, 5 mg/kg",201% and 214% and 232%
same,Survival rate,[1]; Dose 5 mg/kg,0/6
same,Survival days (mean ± SD),"[1]; Dose 7.5 mg/kg, 7.5 mg/kg",19.0 ± 8.7 days and 19.2 ± 3.0 days and 20.2 ± 4.8 days and 18.7 ± 3.1 days
same,T/C (%),"[1]; Dose 7.5 mg/kg, 7.5 mg/kg",229% and 237% and 238% and 231%
same,Survival rate,"[1]; Dose 7.5 mg/kg, 7.5 mg/kg",1/6 and 0/6
"NC1CCCCC1N.O=C([O-])c1ccc(=O)oc1.O=C([O-])c1ccc(=O)oc1.[Pt+2] [XXII-1, bis(2-pyrone-5-carboxylato)(trans-ℓ-dach)platinum(II)]",Survival days (mean ± SD),"[1]; Dose 1 mg/kg, 1 mg/kg",9.0 ± 0.9 days and 11.3 ± 0.8 days
same,T/C (%),"[1]; Dose 1 mg/kg, 1 mg/kg",108% and 140%
same,Survival rate,[1]; Dose 1 mg/kg,0/6
same,Survival rate,"[1]; Dose 10 mg/kg, 10 mg/kg",0/6 and 2/6
same,Survival rate,"[1]; Dose 25 mg/kg, 25 mg/kg",0/6 and 3/6
same,Survival days (mean ± SD),"[1]; Dose 50 mg/kg, 50 mg/kg",15.2 ± 3.1 days and 17.8 ± 2.8 days
same,T/C (%),"[1]; Dose 50 mg/kg, 50 mg/kg",183% and 220%
same,Survival rate,[1]; Dose 50 mg/kg,0/6
same,Survival days (mean ± SD),"[1]; Dose 100 mg/kg, 100 mg/kg",20.7 ± 7.2 days and 12.3 ± 2.7 days
same,T/C (%),"[1]; Dose 100 mg/kg, 100 mg/kg",249% and 152%
same,Survival rate,"[1]; Dose 100 mg/kg, 100 mg/kg",1/6 and 0/6
same,Survival rate,[1]; Dose 200 mg/kg,0/6
same,LD50 values,Slc:ICR mice,>200 mg/kg
"CCOC(=O)CNC(=O)C=CC(=O)[O-].NC1CCCCC1N.[OH-].[Pt+2] [XXIX-1, N-(ethoxycarbonylmethyl)maleamido-hydroxo(trans-ℓ- dach)platinum(II)]",LD50 values,Slc:ICR mice,>200 mg/kg
"COC(=O)C(Cc1ccccc1)NC(=O)C=CC(=O)[O-].NC1CCCCC1N.[OH-].[Pt+2] (stereo not drawn) [XXIX-2, N-(dℓ-2-phenyl-1-methoxycarbonylethyl)maleamido-hydroxo(trans-i-dach)platinum(II)]",LD50 values,Slc:ICR mice,>200 mg/kg
"NC1CCCCC1N.O=C([O-])C=CC(=O)Nc1cccc(O)c1.[OH-].[Pt+2] [XXIX-4, N-(3-hydroxyphenyl)maleamido-hydroxo(trans-ℓ-dach)-platinum(II)]",LD50 values,Slc:ICR mice,62 mg/kg
"CC1(C)CC(=O)C=C(C(=O)[O-])O1.CC1(C)CC(=O)C=C(C(=O)[O-])O1.NC1CCCCC1N.[Pt+2] [XXV-1, bis(3,4-dihydro-2,2-dimethyl-4-oxo-2H-pyrane-6-carboxylato) (trans-k-dach)platinum(II)]",LD50 values,Slc:ICR mice,192 mg/kg
"NC1CCCCC1N.O=C(CN1C(=O)c2ccccc2C1=O)NCC(=O)[O][Pt][O]C(=O)CNC(=O)CN1C(=O)c2ccccc2C1=O [XXVI-1, Bis(phthaloylglycylglycinato)(trans-ℓ-dach)-platinum(II)]",LD50 values,Slc:ICR mice,>200 mg/kg
"COCCOCC(=O)[O][Pt][O]C(=O)COCCOC.NC1CCCCC1N [XXVII-1, Bis(methoxyethoxymethylcarboxylato)(trans-ℓ-dach)-platinum(II)]",LD50 values,Slc:ICR mice,50 mg/kg
"O=C([O][Pt]1([O]C(=O)c2ccc(N3C(=O)C=CC3=O)cc2)[NH]C2CCCCC2[NH]1)c1ccc(N2C(=O)C=CC2=O)cc1 (stereo not drawn) [XXVIII-1, Bis[N-(4-carboxyphenyl)maleimido](trans-ℓ-dach)-platinum(II)]",LD50 values,Slc:ICR mice,70 mg/kg
"O=C(C=Cc1ccc(O)cc1)[O][Pt]1([OH])[NH]C2CCCCC2[NH]1 (stereo not drawn) [XXXI-4, β-(4-hydroxyphenyl)acrylate-hydroxo(trans-ℓ-dach)-platinum(II)]",LD50 values,Slc:ICR mice,117 mg/kg
"O=C(C=Cc1ccc(C(F)(F)F)cc1)[O][Pt]1([OH])[NH]C2CCCCC2[NH]1 (stereo not drawn) [XXXI-5, β-(4-trifluourmethylphenyl)acrylate-hydroxo(trans-ℓ-dach)platinum(II)]",LD50 values,Slc:ICR mice,>200 mg/kg
"NC1CCCCC1N.O=C([O][Pt][O]C(=O)C1(O)CC(O)C(O)C(O)C1)C1(O)CC(O)C(O)C(O)C1 [XXXII-1, Bis(lR,3R,4R,5R-tetrahydroxycyclohexanecarboxylato)-(trans-ℓ-dach)platinum(II)]",LD50 values,Slc:ICR mice,>200 mg/kg
"NC1CCCCC1N.O=C([O-])CCc1ccc(O)cc1.O=C([O-])CCc1ccc(O)cc1.[Pt+2] [XXXIV-1, Bis(3-(4-hydroxyphenyl)propionato)(trans-ℓ-dach)-platinum(II)]",LD50 values,Slc:ICR mice,90 mg/kg
"CC1(C(=O)[O][Pt][O]C(=O)C2(C)CCC3(C)CCC4(C)C(=CC(=O)C5C6(C)CCC(O)C(C)(C)C6CCC54C)C3C2)CCC2(C)CCC3(C)C(=CC(=O)C4C5(C)CCC(O)C(C)(C)C5CCC43C)C2C1.NC1CCCCC1N.O.O.O.O (stereo not drawn) [XXXV-1, Bis(β-glycyrrhetinato)(trans-ℓ-dach)platinum(II)-tetrahydrate]",LD50 values,Slc:ICR mice,>150 mg/kg
Bis(2-propenylacrylate)(trans-ℓ-dach)platinum(II) [XXX-1],LD50 values,Slc:ICR mice,77 mg/kg
N-(4-methoxycarbonylphenyl)maleamido-hydroxo(trans-A-dach)platinum(II) [XXIX-3],LD50 values,Slc:ICR mice,48 mg/kg
